# Laboratory results as given in US12642270B2, “Substituted thiophene carboxamides, thiophene carboxylic acids and derivatives thereof” (Bayer Aktiengesellschaft, priority 2019, dated 2026).
# Assay: Log P by HPLC on reversed phase columns (EEC directive 79/831 Annex V.A8)
# Format: physicochemical
# Details: method [a]
# Description: In the above tables, measurement of Log P values was performed according to EEC directive 79/831 Annex V.A8 by HPLC (High Performance Liquid Chromatography) on reversed phase columns with the following methods: • ^[a] Log P value is determined by measurement of LC-UV, in an acidic range, with 0.1% formic acid in water and acetonitrile as eluent (linear gradient from 10% acetonitrile to 95% acetonitrile). • ^[b] Log P value is determined by measurement of LC-UV, in a neutral range, with 0.001 molar ammonium acetate solution in water and acetonitrile as eluent (linear gradient from 10% acetonitrile to 95% acetonitrile). • ^[c] Log P value is determined by measurement of LC-UV, in an acidic range, with 0.1% phosphoric acid and acetonitrile as eluent (linear gradient from 10% acetonitrile to 95% acetonitrile). If more than one Log P value is available within the same method, all the values are given and separated by “+”. Calibration was done with straight-chain alkan2-ones (with 3 to 16 carbon atoms) with known Log P values (measurement of Log P values using retention times with linear interpolation between successive alkanones). Lambda-max-values were determined using UV-spectra from 200 nm to 400 nm and the peak values of the chromatographic signals.
row,Compound,LogP
1,CCOC(=O)C(CCSC)NC(=O)c1sc(Cl)c(Br)c1Cl (stereo not shown) [1.0186],4.47^[a]
2,CCOC(=O)C(Cc1ccccc1)NC(=O)c1sc(Cl)c(Br)c1Cl (stereo not shown) [1.0187],5.04^[a]
3,N#CCNC(=O)c1sc(Cl)c(Cl)c1I [1.0188],2.72^[a]
4,CCOC(=O)CCNC(=O)c1sc(Cl)c(Cl)c1I [1.0189],3.47^[a]
5,COC(=O)C(CC(F)F)NC(=O)c1sc(Cl)c(Cl)c1I (stereo not shown) [1.0192],3.64^[a]
6,CCOC(=O)CNC(=O)c1sc(Br)c(Cl)c1Cl [1.0195],3.28^[a]
7,CCOC(=O)CCNC(=O)c1sc(Br)c(Cl)c1Cl [1.0196],3.47^[a]
8,CCOC(=O)C(NC(=O)c1sc(Br)c(Cl)c1Cl)C(C)C (stereo not shown) [1.0200],4.89^[a]
9,CCOC(=O)C(CC(C)C)NC(=O)c1sc(Br)c(Cl)c1Cl (stereo not shown) [1.0202],5.16^[a]
10,CCOC(=O)C(CCSC)NC(=O)c1sc(Br)c(Cl)c1Cl (stereo not shown) [1.0203],4.44^[a]
11,CCOC(=O)C(Cc1ccccc1)NC(=O)c1sc(Br)c(Cl)c1Cl (stereo not shown) [1.0204],5.00^[a]
12,CCOC(=O)CNC(=O)c1sc(Cl)c(Br)c1Br [1.0208],3.35^[a]
13,CCOC(=O)CCNC(=O)c1sc(Cl)c(Br)c1Br [1.0209],3.57^[a]
14,CCOC(=O)C(NC(=O)c1sc(Cl)c(Br)c1Br)C(C)C (stereo not shown) [1.0213],4.89^[a]
15,CCOC(=O)C(CC(C)C)NC(=O)c1sc(Cl)c(Br)c1Br (stereo not shown) [1.0215],5.18^[a]
16,CCOC(=O)C(CCSC)NC(=O)c1sc(Cl)c(Br)c1Br (stereo not shown) [1.0216],4.40^[a]
17,CCOC(=O)C(Cc1ccccc1)NC(=O)c1sc(Cl)c(Br)c1Br (stereo not shown) [1.0217],5.04^[a]
18,O=C(NC(Cc1ccccc1)C(=O)O)c1sc(Br)c(Br)c1F (stereo not shown) [1.0226],3.22^[a]
19,O=C(O)CNC(=O)c1sc(Br)c(Br)c1F [1.0227],2.01^[a]
20,O=C(NC(CO)C(=O)O)c1sc(Br)c(Br)c1F (stereo not shown) [1.0228],1.77^[a]
21,CC(C)CC(NC(=O)c1sc(Br)c(Br)c1F)C(=O)O (stereo not shown) [1.0229],3.34^[a]
22,NC(=O)CCC(NC(=O)c1sc(Br)c(Br)c1F)C(=O)O (stereo not shown) [1.0230],1.65^[a]
23,O=C(NC(Cc1c[nH]c2ccccc12)C(=O)O)c1sc(Br)c(Br)c1F (stereo not shown) [1.0231],3.05^[a]
24,CC(C)C(NC(=O)c1sc(Br)c(Br)c1F)C(=O)O (stereo not shown) [1.0234],2.97^[a]
25,Cc1c(C(=O)NC(C(=O)O)C2CC2)sc(Br)c1Cl (stereo not shown) [1.0254],2.64^[a]
26,Cc1c(C(=O)NC(C(=O)O)C2CC2)sc(Cl)c1Br (stereo not shown) [1.0255],2.67^[a]
27,NC(=O)CC(NC(=O)c1sc(Br)c(Br)c1F)C(=O)O (stereo not shown) [1.0256],1.66^[a]
28,CCOC(=O)C(NC(=O)c1sc(Cl)c(Br)c1C)C1CC1 (stereo not shown) [1.0266],3.81^[a]
29,COC(=O)C(NC(=O)c1sc(Cl)c(Br)c1C)C(=O)OC [1.0267],3.07^[a]
30,CCOC(=O)C(CC1CC1)NC(=O)c1sc(Cl)c(Br)c1C (stereo not shown) [1.0268],4.30^[a]

# Now from value to compound:
row,LogP,Compound
1,3.84^[a],COC(=O)C(NC(=O)c1sc(Cl)c(Cl)c1I)C1CC1 (stereo not shown) [1.0190]
2,4.12^[a],CCOC(=O)C1(NC(=O)c2sc(Cl)c(Cl)c2I)CCC1 [1.0191]
3,2.67^[a],N#CCNC(=O)c1sc(Br)c(Cl)c1Cl [1.0193]
4,2.86^[a],COC(=O)CNC(=O)c1sc(Br)c(Cl)c1Cl [1.0194]
5,3.47^[a],CCOC(=O)C1(NC(=O)c2sc(Br)c(Cl)c2Cl)CC1 [1.0197]
6,3.87^[a],COC(=O)C(NC(=O)c1sc(Br)c(Cl)c1Cl)C1CC1 (stereo not shown) [1.0198]
7,4.26^[a],CCOC(=O)C1(NC(=O)c2sc(Br)c(Cl)c2Cl)CCC1 [1.0199]
8,3.60^[a],COC(=O)C(CC(F)F)NC(=O)c1sc(Br)c(Cl)c1Cl (stereo not shown) [1.0201]
9,2.41^[a],N#CCNC(=O)c1sc(Br)c(Br)c1F [1.0205]
10,2.72^[a],N#CCNC(=O)c1sc(Cl)c(Br)c1Br [1.0206]
11,2.91^[a],COC(=O)CNC(=O)c1sc(Cl)c(Br)c1Br [1.0207]
12,3.48^[a],CCOC(=O)C1(NC(=O)c2sc(Cl)c(Br)c2Br)CC1 [1.0210]
13,3.89^[a],COC(=O)C(NC(=O)c1sc(Cl)c(Br)c1Br)C1CC1 (stereo not shown) [1.0211]
14,4.24^[a],CCOC(=O)C1(NC(=O)c2sc(Cl)c(Br)c2Br)CCC1 [1.0212]
15,3.64^[a],COC(=O)C(CC(F)F)NC(=O)c1sc(Cl)c(Br)c1Br (stereo not shown) [1.0214]
16,2.72^[a],CCOC(=O)C1(NC(=O)c2sc(Cl)c(Cl)c2C#N)CC1 [1.0232]
17,2.28^[a],CC(NC(=O)c1sc(Br)c(Br)c1F)C(=O)O (stereo not shown) [1.0233]
18,2.52^[a],CCOC(=O)CNC(=O)c1sc(Cl)c(Cl)c1C#N [1.0236]
19,3.59^[a],CCOC(=O)C(CCSC)NC(=O)c1cc(Cl)c(Br)s1 (stereo not shown) [1.0237]
20,3.65^[a],CCOC(=O)C(CCSC)NC(=O)c1cc(Br)c(Cl)s1 (stereo not shown) [1.0238]
21,2.23^[a],COC(=O)CNC(=O)c1cc(Cl)c(Br)s1 [1.0239]
22,2.36^[a],COC(=O)CNC(=O)c1cc(Br)c(Cl)s1 [1.0240]

row,LogP,Compound
1,2.14^[a],COC(=O)CNC(=O)c1sc(C#N)c(Br)c1C [1.0241]
2,3.34^[a],CCOC(=O)C(CCSC)NC(=O)c1sc(C#N)c(Br)c1C (stereo not shown) [1.0242]
3,2.26^[a],COC(=O)C1(NC(=O)c2sc(C#N)c(Br)c2C)CC1 [1.0243]
4,3.07^[a],CCOC(=O)C1(NC(=O)c2sc(C#N)c(Br)c2C)CCC1 [1.0244]
5,3.85^[a],CCOC(=O)C(CC(C)C)NC(=O)c1sc(C#N)c(Br)c1C (stereo not shown) [1.0245]
6,1.79^[a],O=C(O)CNC(=O)c1cc(Cl)c(Br)s1 [1.0247]
7,1.81^[a],O=C(O)CNC(=O)c1cc(Br)c(Cl)s1 [1.0248]
8,1.61^[a],Cc1c(C(=O)NCC(=O)O)sc(C#N)c1Br [1.0249]
9,1.84^[a],Cc1c(C(=O)NC2(C(=O)O)CC2)sc(C#N)c1Br [1.0250]
10,4.08^[a],CCSC(=O)C1(NC(=O)c2sc(Cl)c(Cl)c2C)CC1 [1.0251]
11,3.74^[a],CCSC(=O)C1(NC(=O)c2sc(Br)c(Cl)c2C)CC1 [1.0252]
12,3.77^[a],CCSC(=O)C1(NC(=O)c2sc(Cl)c(Br)c2C)CC1 [1.0253]
13,3.07^[a],CCOC(=O)C(C#N)NC(=O)c1sc(Br)c(Br)c1F (stereo not shown) [1.0257]
14,2.57^[a],CCOC(=O)C1(NC(=O)c2sc(C#N)c(Cl)c2C)CC1 [1.0258]
15,3.01^[a],COC(=O)C(NC(=O)c1cc(Cl)c(Br)s1)C1CC1 (stereo not shown) [1.0259]
16,3.07^[a],COC(=O)C(NC(=O)c1cc(Br)c(Cl)s1)C1CC1 (stereo not shown) [1.0260]
17,2.75^[a],COC(=O)C(NC(=O)c1sc(C#N)c(Br)c1C)C1CC1 (stereo not shown) [1.0261]
18,3.81^[a],COC(=O)C(NC(=O)c1sc(Br)c(Br)c1I)C1CC1 (stereo not shown) [1.0262]
19,3.84^[a],COC(=O)C(NC(=O)c1sc(Cl)c(Cl)c1Br)C1CC1 (stereo not shown) [1.0263]
20,3.84^[a],COC(=O)C(NC(=O)c1sc(Br)c(Br)c1Cl)C1CC1 (stereo not shown) [1.0264]
21,2.41^[a],O=C(NC1(C(=O)O)CC1)c1sc(Cl)c(Br)c1Br [1.0265]
22,3.98^[a],COC(=O)C(NC(=O)c1sc(Cl)c(Br)c1C)(C1CC1)C1CC1 [1.0269]

# Same assay, conditions: method marked [a]
row,Compound,LogP
1,CCOC(=O)C(NC(=O)c1sc(Cl)c(Br)c1C)C(=O)OCC [1.0270],3.87^[a]
2,CCOC(=O)C(NC(=O)c1sc(Br)c(Cl)c1C)C1CC1 (stereo not shown) [1.0272],3.77^[a]
3,CCOC(=O)C(CC1CC1)NC(=O)c1sc(Br)c(Cl)c1C (stereo not shown) [1.0274],4.26^[a]
4,CCOC(=O)C(NC(=O)c1sc(Br)c(Cl)c1C)C(=O)OCC [1.0276],3.84^[a]
5,CCOC(=O)C(CC(C)C)NC(=O)c1sc(Cl)c(Cl)c1C#N (stereo not shown) [1.0279],4.05^[a]
6,CCOC(=O)C(NC(=O)c1sc(Cl)c(Cl)c1C#N)C(C)C (stereo not shown) [1.0280],3.77^[a]
7,O=C(NC(C(=O)O)C1CC1)c1sc(Cl)c(Cl)c1Br (stereo not shown) [1.0287],2.95^[a]
8,O=C(NC(C(=O)NC(C(=O)O)C1CC1)C1CC1)c1sc(Cl)c(Cl)c1Br (stereo not shown) [1.0289],2.97^[a]

# The next lines start with the values.
row,LogP,Compound
1,4.23^[a],CCOC(=O)C1(NC(=O)c2sc(Cl)c(Br)c2C)CN(C(=O)OC(C)(C)C)C1 [1.0271]
2,3.04^[a],COC(=O)C(NC(=O)c1sc(Br)c(Cl)c1C)C(=O)OC [1.0273]
3,3.94^[a],COC(=O)C(NC(=O)c1sc(Br)c(Cl)c1C)(C1CC1)C1CC1 [1.0275]
4,4.19^[a],CCOC(=O)C1(NC(=O)c2sc(Br)c(Cl)c2C)CN(C(=O)OC(C)(C)C)C1 [1.0277]
5,1.66^[a],COC(=O)[C@H](CCCNC(=N)N)NC(=O)c1sc(Br)c(Br)c1F [1.0278]
6,2.10^[a],COC(=O)C1(NC(=O)c2cc(Br)c(C#N)s2)CC1 [1.0281]
7,1.70^[a],N#Cc1sc(C(=O)NC2(C(=O)O)CC2)cc1Br [1.0282]
8,2.21^[a],COC(=O)C1(NC(=O)c2sc(C#N)c(Cl)c2C)CC1 [1.0283]
9,2.41^[a],O=C(NC(C(=O)O)C1CC1)c1cc(Cl)c(Br)s1 (stereo not shown) [1.0284]
10,2.44^[a],O=C(NC(C(=O)O)C1CC1)c1cc(Br)c(Cl)s1 (stereo not shown) [1.0285]
11,2.19^[a],Cc1c(C(=O)NC(C(=O)O)C2CC2)sc(C#N)c1Br (stereo not shown) [1.0286]
12,2.49^[a],O=C(NC(C(=O)NC(C(=O)O)C1CC1)C1CC1)c1cc(Br)c(Cl)s1 (stereo not shown) [1.0288]
